The results in this text go back to patent US10173999B2, “Cyclic amine derivative and pharmaceutical use thereof” (Toray Industries, Inc., priority 2015, dated 2019).

This data set can be described thus: Pharmacokinetics (PK) test in cynomolgus monkeys. It counts as in vivo, cynomolgus monkey. The protocol: Cynomolgus monkeys (4 to 6 years old, male) were raised under the conditions of voluntary intake of solid food (Oriental Yeast Co., Ltd) and tap water and fasted from the evening of the day before initiation of administration and subjected to an experiment. Note that blood was sampled at 4 hours after administration (on and after 16:00), and thereafter feeding was restarted.
Dosing solution for intravenous administration was injected through the saphenous vein by use of a syringe needle (attached to a syringe barrel). The oral administration into the stomach was compulsively carried out by inserting a catheter into the nasal cavity.
The blood sampled was centrifuged at 4° C. and 1800×g for 15 minutes to obtain the plasma. The plasma thus obtained was stored at about −80° C. until use in preparation of analysis samples. The plasma obtained from a cynomolgus monkey to which a test compound was administrated, is referred to as a plasma sample; whereas the plasma obtained from a cynomolgus monkey to which a test compound was not administered, is referred to as the blank plasma.
The resulting solution was vortexed and cooled at 4° C. for 10 minutes. A sample for a calibration curve was prepared by adding a standard solution for a calibration curve to the blank plasma and subjecting the resulting mixture to the same treatment. After cooling, each of the samples was spun at 4° C. and 2000 rpm for 10 minutes by a centrifuge (Hitachi Koki Co., Ltd.). The resulting supernatant was used as a sample for LC/MS/MS analysis.
The resulting solution was vortexed and cooled at 4° C. for 10 minutes. A sample for a calibration curve was prepared by adding a standard solution for a calibration curve to the blank plasma and subjecting the resulting mixture to the same treatment. After cooling, each of the samples was spun at 4° C. and 2000 rpm for 10 minutes by a centrifuge (Hitachi Koki Co., Ltd.). The resulting supernatant was diluted 10 fold with 70 vol % acetonitrile containing 0.1 vol % formic acid and subjected as a sample for LC/MS/MS analysis. The LC/MS/MS analysis conditions were as follows:
The test-compound concentrations in the plasma at each sampling time point in the case of intravenous administration or oral administration were calculated and PK analysis was carried out for individual monkeys. PK parameters were calculated by using WinNonlin (Pharsight), in accordance with an analysis independent of a model (intravenous administration: Bolus IV Administration, oral administration: Extravascular Administration; Weight=1/y in both administrations). Furthermore, bioavailability (BA) was calculated based on the following Expression (3) by dividing AUC0-∞iv (time 0 to ∞) at the time of the intravenous administration and AUC0-∞po (time 0 to ∞) at the time of the oral administration by respective dose values to obtained as normalized values. Bioavailability (BA)=(AUC0-∞,po/dose)/(AUC0-∞,iv/dose) (3)

The term bioavailability denotes dose-corrected exposure relative to a reference, in per cent. By clearance is commonly meant the volume of plasma or blood freed of the substance per unit of time. What is called AUC(0-inf) is total exposure, with the tail of the curve extrapolated.

As to `CN(C)C1CCN(C(=O)C[C@H](O)c2nccn2C)CC1` [Example 11, (S)-1-(4-(dimethylamino)piperidin-1-yl)-3-hydroxy-3-(1-methyl-1H-imidazol-2-yl)propan-1-one], the “mean plasma concentration after administration compared with Comparative Example 2” value (cynomolgus monkeys, intravenous and oral 1 mg/kg, all time points) is listed as “higher”. Further, the bioavailability (male, plasma, cynomolgus monkey, 1 mg/kg oral vs 1 mg/kg intravenous, read-out: BA (bioavailability)) came out at 52.6%. Besides, the clearance (male, plasma, cynomolgus monkey, intravenous administration 1 mg/kg, single, read-out: CLtot (total body clearance) (converted)) was 3.25 mL/min/kg. For the setting “male, plasma, cynomolgus monkey, oral administration 1 mg/kg, single”, the AUC(0-inf) was found to be 2730 ng·h/mL. Moreover, for the setting “male, plasma, cynomolgus monkey, oral administration 1 mg/kg, single, read-out: Cmax (maximum plasma concentration)”, the Cmax amounted to 279 ng/mL. For the same compound, the half-life (male, plasma, cynomolgus monkey, oral administration 1 mg/kg, single, read-out: t1/2 (elimination half-life in the plasma) (converted)) is 7.55 h.
